{"source": "paper doi:10.1101/2025.04.25.650653", "about": "“Hierarchical small molecule inhibition of MYST acetyltransferases” (bioRxiv, 2025)", "test_system": "histone modifications in MCF-7 cells", "assay": "Histone modification analysis by bottom-up LC-MS/MS", "format": "cell-based", "conditions": "for Average ratio, H2A1_12_17 unmod (AKAKTR): peptide H2A1_12_17 unmod; for Average ratio, H2A1_12_17 unmod (AKAKTR) / Average ratio, H2A3_12_17 K15me1 (AKAKSR) / Ratio, H2A1_12_17 unmod / Ratio, H2A3_12_17 K15me1: MCF-7; for Average ratio, H2A1_12_17 unmod (AKAKTR) / Average ratio, H2A3_12_17 K15me1 (AKAKSR): average of 3 replicates; for Average ratio, H2A3_12_17 K15me1 (AKAKSR): peptide H2A3_12_17 K15me1", "source_text": "In this approach. […] Histones are then extracted from cell pellets and chemically derivatized with propionic anhydride, digested with trypsin, subjected to a second round of propionylation, and analyzed by LC-MS/MS. Measuring the relative intensity of modified versus unmodified forms of individual histone peptides enables simultaneous monitoring of multiple potential biomarkers of MYST inhibition. To minimize false positives, we focused on abundant and reproducible modifications (average stoichiometry of greater than 1% across triplicate samples, standard deviation less than or equal to the average measurement). To account for potential histone modification crosstalk, changes in both acetylated and methylated peptides were evaluated. 38 modified peptides passed this reproducible detection threshold including several established KAT biomarkers[41] including H3K9Ac (KAT2A/B), H3K18Ac (KAT3A/B), H3K14Ac (KAT7), H3K23Ac (KAT6A/B), H4K16Ac (KAT8), and H2A.ZK4/K7Ac (KAT5; Fig. 4B).\nHistone modification analysis\nMCF-7 cells were cultured at 37 °C under 5% CO2 in EMEM (Quality Biological, 112-016-101) with 0.01 mg/mL human recombinant insulin (Sigma Aldrich, 91077C), 2 mM L-glutamine (Quality Biological, 118- […]\nhuman recombinant insulin.\n1119, WM-3835). Following 24 h inhibitor treatment, cells were washed with ice-cold 1× PBS and scraped in 150 µL of Nuclear Isolation Buffer (NIB) containing 0.1% NP-40 for histone extraction using a modified protocol from the Garcia laboratory. 9 Briefly, cell suspensions were incubated on ice for 5 minutes, and […]\nnuclei were pelleted by centrifugation (600 rcf, 4°C, 5 min). Pelleted nuclei were washed twice with 150 μL of detergent-free NIB buffer, followed by centrifugation (600 rcf, 4°C, 5 min) to remove all detergent.\nNuclei were then resuspended in 400 μL of 0.4 N H₂SO₄ and rotated at 4°C overnight for acid extraction of histones. The following day, samples were centrifuged (11,000 rcf, 4°C, 10 min) and the histone-containing supernatant was transferred to a fresh tube. Trichloroacetic acid (100% TCA) was added to achieve a final concentration of 20% (v/v), tubes were inverted once to mix, and histone precipitation was performed on ice for at least 3 hours or overnight at 4°C. Precipitated histones were collected by centrifugation (11,000 rcf, 4°C, 10 min) and the supernatant carefully removed, leaving a visible film of histones on the tube wall or bottom. Histone pellets were subjected to sequential washes with 1 mL of ice-cold acidified acetone (0.1% 12 N HCl) followed by 1 mL of 100% ice-cold acetone, with centrifugation (11,000 rcf, 4°C, 5 min) after each wash. Samples were air-dried at room temperature, resuspended in 40 µL of ddH₂O, and protein […]\nanalysis, 1-2 µg of purified histones were loaded per lane and processed according to the general immunoblotting protocol described in General Materials and Methods.\nAnalysis of histone modifications by LC-MS/MS\nPreparation of histone samples for LC-MS/MS was performed analogously to the procedure for immunoblotting above, with the following modifications. MCF7 cells (4.2 × 106) were seeded in 15 cm dishes and treated with PF-9363 or vehicle. Experiments were performed in triplicate. Following treatment and PBS washing, cells were scraped and collected in 15 mL falcon tubes, pelleted (500 rcf, 4°C, 5 min), resuspended in 1 mL cold PBS, transferred to microcentrifuge tubes, and pelleted again before flash-freezing in liquid nitrogen for storage at -80°C. For extraction, cell pellets (~100 μL) were resuspended in NIB buffer at a 1:10 ratio, and cells were lysed with NIB buffer containing 0.2% NP-40 for 8 minutes on ice. Nuclei were pelleted at 1,000 rcf for 8 minutes and washed three times with 500 μL detergent-free NIB buffer. Histones were extracted using 800 μL of 0.2 M H₂SO₄, and after centrifugation (3,400 rcf, 4°C, 10"}
{"smiles": "COc1cccc(OC)c1S(=O)(=O)Nc1noc2cc(Cn3cccn3)cc(OC)c12", "note": "[PF-9363]", "values": [{"measurement": "Average ratio, H2A1_1_11 K5ac", "setting": "PF-9363 (0.1 mM)", "result": 0.8521}, {"measurement": "Average ratio, H2A1_4_11 K5ac", "setting": "PF-9363 (0.1 mM)", "result": 0.0421}, {"measurement": "Average ratio, H2A1_4_11 K9ac", "setting": "PF-9363 (0.1 mM)", "result": 0.0404}, {"measurement": "Average ratio, H2A1_4_11 unmod", "setting": "PF-9363 (0.1 mM)", "result": 0.9065}, {"measurement": "Average ratio, H2A1_36_42 unmod", "setting": "PF-9363 (0.1 mM)", "result": 0.9991}, {"measurement": "Average ratio, H2A3_36_42 unmod", "setting": "PF-9363 (0.1 mM)", "result": 1.0000}, {"measurement": "Average ratio, H2AJ_4_11 K5acK9ac", "setting": "PF-9363 (0.1 mM)", "result": 0.8702}, {"measurement": "Average ratio, H2AV_1_19 K4ac", "setting": "PF-9363 (0.1 mM)", "result": 0.0404}, {"measurement": "Average ratio, H2AV_1_19 unmod", "setting": "PF-9363 (0.1 mM)", "result": 0.8917}, {"measurement": "Average ratio, H2AX_36_42 unmod", "setting": "PF-9363 (0.1 mM)", "result": 1.0000}, {"measurement": "Average ratio, H2AZ_1_19 K11ac", "setting": "PF-9363 (0.1 mM)", "result": 0.0091}, {"measurement": "Average ratio, H2AZ_1_19 unmod", "setting": "PF-9363 (0.1 mM)", "result": 0.8729}, {"measurement": "Average ratio, H3_73_83 K79me1", "setting": "PF-9363 (0.1 mM)", "result": 0.0887}, {"measurement": "Average ratio, H3_73_83 K79me2", "setting": "PF-9363 (0.1 mM)", "result": 0.0735}, {"measurement": "Average ratio, H3_73_83 unmod", "setting": "PF-9363 (0.1 mM)", "result": 0.8364}, {"measurement": "Average ratio, H4_4_17 K12acK16ac", "setting": "PF-9363 (0.1 mM)", "result": 0.0092}, {"measurement": "Average ratio, H4_4_17 unmod", "setting": "PF-9363 (0.1 mM)", "result": 0.6321}, {"measurement": "Average ratio, H4_20_23 K20me1", "setting": "PF-9363 (0.1 mM)", "result": 0.0308}, {"measurement": "Average ratio, H4_20_23 unmod", "setting": "PF-9363 (0.1 mM)", "result": 0.0293}, {"measurement": "Average ratio, H2A1_12_17 unmod (AKAKTR)", "setting": "PF-9363 (0.1 mM)", "result": 0.4892}, {"measurement": "Average ratio, H2A3_12_17 K15me1 (AKAKSR)", "setting": "PF-9363 (0.1 mM)", "result": 0.4715}, {"measurement": "Average ratio, H2A1_1_11 K5ac", "setting": "PF-9363 (30 mM)", "result": 0.8566}, {"measurement": "Average ratio, H2A1_4_11 K5ac", "setting": "PF-9363 (30 mM)", "result": 0.0480}, {"measurement": "Average ratio, H2A1_4_11 K9ac", "setting": "PF-9363 (30 mM)", "result": 0.0347}, {"measurement": "Average ratio, H2A1_4_11 unmod", "setting": "PF-9363 (30 mM)", "result": 0.9114}, {"measurement": "Average ratio, H2A1_36_42 unmod", "setting": "PF-9363 (30 mM)", "result": 0.9988}, {"measurement": "Average ratio, H2A3_36_42 unmod", "setting": "PF-9363 (30 mM)", "result": 1.0000}, {"measurement": "Average ratio, H2AJ_4_11 K5acK9ac", "setting": "PF-9363 (30 mM)", "result": 0.8922}, {"measurement": "Average ratio, H2AV_1_19 K4ac", "setting": "PF-9363 (30 mM)", "result": 0.0413}, {"measurement": "Average ratio, H2AV_1_19 unmod", "setting": "PF-9363 (30 mM)", "result": 0.7807}, {"measurement": "Average ratio, H2AX_4_11 unmod", "setting": "PF-9363 (30 mM)", "result": 0.3301}, {"measurement": "Average ratio, H2AX_36_42 unmod", "setting": "PF-9363 (30 mM)", "result": 1.0000}, {"measurement": "Average ratio, H2AZ_1_19 K11ac", "setting": "PF-9363 (30 mM)", "result": 0.0141}, {"measurement": "Average ratio, H2AZ_1_19 unmod", "setting": "PF-9363 (30 mM)", "result": 0.9481}, {"measurement": "Average ratio, H3_73_83 K79me1", "setting": "PF-9363 (30 mM)", "result": 0.0821}, {"measurement": "Average ratio, H3_73_83 K79me2", "setting": "PF-9363 (30 mM)", "result": 0.0558}, {"measurement": "Average ratio, H3_73_83 unmod", "setting": "PF-9363 (30 mM)", "result": 0.8605}, {"measurement": "Average ratio, H4_4_17 K12acK16ac", "setting": "PF-9363 (30 mM)", "result": 0.1819}, {"measurement": "Average ratio, H4_4_17 unmod", "setting": "PF-9363 (30 mM)", "result": 0.4341}, {"measurement": "Average ratio, H4_20_23 K20me1", "setting": "PF-9363 (30 mM)", "result": 0.0237}, {"measurement": "Average ratio, H4_20_23 unmod", "setting": "PF-9363 (30 mM)", "result": 0.0213}, {"measurement": "Average ratio, H2A1_12_17 unmod (AKAKTR)", "setting": "PF-9363 (30 mM)", "result": 0.5017}, {"measurement": "Average ratio, H2A3_12_17 K15me1 (AKAKSR)", "setting": "PF-9363 (30 mM)", "result": 0.4920}, {"measurement": "Ratio, H2A1_12_17 unmod", "setting": "Replicate 1, PF-9363 0.1", "result": 0.4969}, {"measurement": "Ratio, H2A3_12_17 K15me1", "setting": "Replicate 1, PF-9363 0.1", "result": 0.4799}, {"measurement": "Ratio, H2A1_12_17 unmod", "setting": "Replicate 1, PF-9363 1", "result": 0.5198}, {"measurement": "Ratio, H2A3_12_17 K15me1", "setting": "Replicate 1, PF-9363 1", "result": 0.5023}, {"measurement": "Ratio, H2A1_12_17 unmod", "setting": "Replicate 1, PF-9363 10", "result": 0.4982}, {"measurement": "Ratio, H2A3_12_17 K15me1", "setting": "Replicate 1, PF-9363 10", "result": 0.4848}, {"measurement": "Ratio, H2A1_12_17 unmod", "setting": "Replicate 1, PF-9363 30", "result": 0.5053}, {"measurement": "Ratio, H2A3_12_17 K15me1", "setting": "Replicate 1, PF-9363 30", "result": 0.497}, {"measurement": "Ratio, H2A1_12_17 unmod", "setting": "Replicate 2, PF-9363 0.1", "result": 0.484}, {"measurement": "Ratio, H2A3_12_17 K15me1", "setting": "Replicate 2, PF-9363 0.1", "result": 0.4685}, {"measurement": "Ratio, H2A1_12_17 unmod", "setting": "Replicate 2, PF-9363 1", "result": 0.4972}, {"measurement": "Ratio, H2A3_12_17 K15me1", "setting": "Replicate 2, PF-9363 1", "result": 0.4788}, {"measurement": "Ratio, H2A1_12_17 unmod", "setting": "Replicate 2, PF-9363 10", "result": 0.498}, {"measurement": "Ratio, H2A3_12_17 K15me1", "setting": "Replicate 2, PF-9363 10", "result": 0.4832}]}
